From patent publication US11390590B2, “Methods and processes for the preparation of KDM1A inhibitors” (Imago Biosciences, Inc., priority 2016, dated 2022)
Converted amounts (≈) assume the structure as drawn. Structures can show the parent of a compound that is named as a salt.

Tests used:
Type in all cases: physicochemical
[1] = Exploration of solubility: 300 mg slurry in solvent (10 V) at 15~20° C.; conditions: for solubility: 15 °C, organic solvent or mixture, thermodynamic from solid; for solubility / Solubility (mg/mL): 300 mg slurry at 15~20° C.
Source text: Exploration of Step 3: Amide Formation. Exploration of Product Solubility.
Exploration of the Solubility of 4 in Various Solvents.

[2] = Exploration of product stability in alkaline conditions; conditions: for Assay: 15~25° C.
Source text: Exploration of Product Stability in Alkaline Conditions.

[3] = Exploration of solvent for filtration: 5a slurry in solvent; conditions: 500 mg slurry, HCl (EtOH) charged, 15˜25° C. for 20 h
Protocol: Exploration of Solvent for Filtration.
Experiments were performed 15˜25° C. for 20 h.

Q: For `COC(=O)CC[C@H](NC(=O)c1ccc(-n2ccnn2)cc1)C(=O)N1CCN(C)CC1` [Compound 3, methyl (4S)-4-[4-(1H-1,2,3-triazol-1-yl)benzoylamino]-5-(4-methylpiperazin-1-yl)-5-oxopentanoate], which solubility ([1]; Acetonitrile (10 V)) is on record?
A: 29500 µg/mL (≈ 71.2 mM)

Q: And the solubility ([1]; EtOAc (10 V))?
A: 9000 µg/mL (≈ 21.7 mM)

Q: And the solubility ([1]; EtOH (10 V))?
A: 22500 µg/mL (≈ 54.3 mM)

Q: What about the solubility ([1]; IPA (10 V)) of the same compound?
A: 14100 µg/mL (≈ 34 mM)

Q: And the solubility ([1]; IPAc (10 V))?
A: 4800 µg/mL (≈ 11.6 mM)

Q: And the solubility ([1]; MTBE (10 V))?
A: 600 µg/mL (≈ 1.45 mM)

Q: What about the solubility ([1]; THF (10 V)) of the same compound?
A: 84200 µg/mL (≈ 203 mM)

Q: What about the “Solubility (mg/mL)” value ([1]; DCM (10 V)) of the same compound?
A: Dissolved completely

Q: And the “Solubility (mg/mL)” value ([1]; Heptane (10 V))?
A: insoluble

Q: What about the “Solubility (mg/mL)” value ([1]; MeOH (10 V)) of the same compound?
A: Dissolved completely

Q: What about the “solubility (conclusion)” value ([1]; in DCM, THF or MeOH) of the same compound?
A: good solubility

Q: And the Assay ([2]; 1.0 g, pH 9-10 with 6M LiOH aqueous solution, 0 h)?
A: 1.0 g

Q: And the Assay ([2]; 1.0 g, pH 9-10 with 6M LiOH aqueous solution, +10 h)?
A: 1.0 g

Q: And the Assay ([2]; 1.0 g, pH 9-10 with 6M LiOH aqueous solution, +24 h (first))?
A: 1.0 g

Q: And the Assay ([2]; 1.0 g, pH 9-10 with 6M LiOH aqueous solution, +24 h (second))?
A: 1.0 g

Q: What about the Assay ([2]; 1.0 g, pH 9-10 with 10 wt. % K2CO3 aqueous solution, 0 h) of the same compound?
A: 1.0 g

Q: And the Assay ([2]; 1.0 g, pH 9-10 with 10 wt. % K2CO3 aqueous solution, +10 h)?
A: 0.90 g

Q: What about the Assay ([2]; 1.0 g, pH 9-10 with 10 wt. % K2CO3 aqueous solution, +24 h (first)) of the same compound?
A: 0.87 g

Q: And the Assay ([2]; 1.0 g, pH 9-10 with 10 wt. % K2CO3 aqueous solution, +24 h (second))?
A: 0.87 g

Q: And the Assay ([2]; 1.0 g, pH 9-10 with 10 wt. % Na2CO3 aqueous solution, 0 h)?
A: 1.0 g

Q: And the Assay ([2]; 1.0 g, pH 9-10 with 10 wt. % Na2CO3 aqueous solution, +10 h)?
A: 0.99 g

Q: And the Assay ([2]; 1.0 g, pH 9-10 with 10 wt. % Na2CO3 aqueous solution, +24 h (first))?
A: 0.97 g

Q: What about the Assay ([2]; 1.0 g, pH 9-10 with 10 wt. % Na2CO3 aqueous solution, +24 h (second)) of the same compound?
A: 0.99 g

Q: What about the Assay ([2]; 1.0 g, pH 9-10 with 10 wt. % NaOH aqueous solution, 0 h) of the same compound?
A: 1.0 g

Q: What about the Assay ([2]; 1.0 g, pH 9-10 with 10 wt. % NaOH aqueous solution, +10 h) of the same compound?
A: 1.0 g

Q: What about the Assay ([2]; 1.0 g, pH 9-10 with 10 wt. % NaOH aqueous solution, +24 h (first)) of the same compound?
A: 1.0 g

Q: What about the Assay ([2]; 1.0 g, pH 9-10 with 10 wt. % NaOH aqueous solution, +24 h (second)) of the same compound?
A: 1.0 g

Q: What about the Assay ([2]; 1.1 g, pH 10-11 with NaOH aqueous solution (6N), 0 h) of the same compound?
A: 0.7 g

Q: What about the Assay ([2]; 1.1 g, pH 10-11 with NaOH aqueous solution (6N), +7 h (after +20 h)) of the same compound?
A: 0.4 g

Q: What about the Assay ([2]; 1.1 g, pH 10-11 with NaOH aqueous solution (6N), +20 h) of the same compound?
A: 0.5 g

Q: What about the Assay ([2]; 1.1 g, pH 10-11 with NaOH aqueous solution (6N), +24 h (first, after +7 h)) of the same compound?
A: 0.3 g

Q: And the Assay ([2]; 1.1 g, pH 10-11 with NaOH aqueous solution (6N), +24 h (second))?
A: 0.2 g

Q: What about the “stability (conclusion)” value ([2]; in the presence of K2CO3) of the same compound?
A: relatively instable

Q: And the “stability (conclusion)” value ([2]; pH>10 in basic aqueous solution)?
A: not stable

Q: And the “stability (conclusion)” value ([2]; weak basic aqueous solution, pH=9-10)?
A: relatively stable

Q: Which results are given for `CN1CCN(C(=O)[C@H](CCC(=O)O)NC(=O)c2ccc(-n3ccnn3)cc2)CC1` [Compound 4, (4S)-4-[4-(1H-1,2,3-triazol-1-yl)benzoylamino]-5-(4-methylpiperazin-1-yl)-5-oxopentanoic Acid]?
A: solubility ([1]; Acetonitrile (10 V)): 400 µg/mL (≈ 0.999 mM); solubility ([1]; DCM (10 V)): 1000 µg/mL (≈ 2.5 mM); solubility ([1]; EtOAc (10 V)): 400 µg/mL (≈ 0.999 mM); solubility ([1]; EtOH (10 V)): 4000 µg/mL (≈ 9.99 mM); solubility ([1]; IPA (10 V)): 900 µg/mL (≈ 2.25 mM); solubility ([1]; IPAc (10 V)): 1000 µg/mL (≈ 2.5 mM); solubility ([1]; MeOH (10 V)): 37000 µg/mL (≈ 92.4 mM); solubility ([1]; THF (10 V)): 1200 µg/mL (≈ 3 mM); stability in MeOH (conclusion of the solubility table) ([1]; MeOH): high stability; solubility (conclusion) ([1]; other tested solvents (than MeOH)): lower solubility

Q: With `CCCCCCCCCCCCSC(=O)CC[C@H](NC(=O)c1ccc(-n2ccnn2)cc1)C(=O)N1CCN(C)CC1` [Compound 5a, dodecyl (4S)-4-[4-(1H-1,2,3-triazol-1-yl)benzoylamino]-5-(4-methyl-piperazin-1-yl)-5-oxopentanethioate Hydrochloride Salt] as the compound, how does the “Result (solubility)” value ([3]; DMSO (20 V)) read?
A: Soluble

Q: And the “Result (solubility)” value ([3]; NMP (20 V))?
A: Soluble
